Assay results reported in patent US20180179198A1, “TRICYCLIC MODULATORS OF TNF SIGNALING” (AbbVie Inc., priority 2015, published 2018).

biological target: TNFα trimer (Homo sapiens, UniProt P01375); experiment: TNFα FP Competitive Binding Assay; settings: TNFα FP competitive binding assay; class symbols A/B/C; read-out: TNF IC50
Description: TNFα FP Competitive Binding Assay
• 1. Assay Buffer: Prepare 1× Assay Buffer (Water with 47 mM HEPES, 47 mM NaCl, 0.9 mM EDTA, 0.0071% Triton X-100) by adding 25 mL of 1 M HEPES, 5 mL of 5 M NaCl, 1 mL of 0.5 M EDTA, and 375 μL of a 10% Triton X-100 stock to a fresh 500 mL bottle of water. • 2. Assay Mixture: Prepare fresh Assay Mixture containing 20 nM TNFα trimer (60 nM protein) and 1 nM 2′,7′-difluoro-3′,6′-dihydroxy-N-(2-(2-(2-((4-(isoquinolin-8-yl)-3-(4-(isoquinolin-8-yl)phenethoxy)benzyl)oxy)ethoxy)ethoxy)ethyl)-3-oxo-3H-spiro[isobenzofuran-1,9′-xanthene]-5-carboxamide probe in 1× Assay Buffer.
Compound Plate Preparation
Manual 12-point 1:3 Dilution Plates: (384 well polypropylene plates)
Top concentration of compounds, 10 mM in DMSO, dispensed in rows A-O in columns 1 and 13. Compounds are serially diluted 1:3 with DMSO in columns 2-12 or 14-24 using a 16-channel Matrix pipettor. Plates stored at −20° C.
Discovery Preps 12-point 1:3 Dilution Plates: (384 well assay plates)
Top concentration, 5 mM in DMSO, of compounds placed in rows A-O in columns 1 and 13. Compounds are serially diluted 1:3 with DMSO in columns 2-12 or 14-24. Compound solutions are dispensed into replicate assay plates at 410 nL per well. Plates stored at 4° C.
TNFα FP Competitive Binding Assay Protocol
• 1. Compound plates are warmed to rt. • 2. Fresh Assay Mixture is prepared. • 3. Assay Mixture (20 μL) is dispensed each well of 384 assay plates using a Thermo Multidrop Combi or 16-channel Matrix pipettor. If Manual 12-point 1:3 Dilution Plates are to be tested, Assay Mix is dispensed into empty plates. Discovery Preps 12-point 1:3 Dilution Plates already contain 410 nL compound solution in DMSO. • 4. For Manual 12-point 1:3 Dilution Plates, 0.7 μL is manually transferred using a 16-channel Matrix pipettor to replicate assay plates containing 20 μL Assay Mixture for a final top compound concentration of 338 μM (3.4% DMSO). • 5. For Discovery Preps 12-point 1:3 Dilution Plates, 20 μL Assay Mixture added the 410 nL compound solution already in the plates yields a final top compound concentration of 100 μM (2.0% DMSO). • 6. Background subtraction controls are wells P1-P8 containing only Assay Buffer. The low % inhibition controls are wells P9-P16 containing only Assay Mix. The high % inhibition are wells P17-P24 containing only 1 nM 2′,7′-difluoro-3′,6′-dihydroxy-N-(2-(2-(2-((4-(isoquinolin-8-yl)-3-(4-(isoquinolin-8-yl)phenethoxy)benzyl)oxy)ethoxy)ethoxy)ethyl)-3-oxo-3H-spiro[isobenzofuran-1,9′-xanthene]-5-carboxamide probe in 1× Assay Buffer. • 7. Plates are incubated at […] for 18-24 h in 37° C. incubator (CO2 is off). • 8. Prior to reading the assay, the plates are placed in a dark cabinet to equilibrate at rt for one hour. • 9. Background-subtracted fluorescence polarization (mP) is measured using a PerkinElmer Envision plate reader. • 10. Raw data is entered into Assay Explorer and dose-response curves are generated using a variable slope curve.

TNFα trimer, sequence (P01375 77-233 limits assumed): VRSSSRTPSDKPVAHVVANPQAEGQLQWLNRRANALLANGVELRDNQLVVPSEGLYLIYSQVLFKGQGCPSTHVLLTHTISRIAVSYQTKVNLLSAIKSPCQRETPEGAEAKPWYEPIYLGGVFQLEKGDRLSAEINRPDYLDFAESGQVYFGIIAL

Compound	IC50 [µM]
OC1(c2ncc(-c3ccc4nc5n(c4c3)[C@@H](c3ccccc3)CC5)cn2)CCOCC1 [AA.1]	< 1
OC1(c2ncc(-c3ccc4nc5n(c4c3)[C@@H](c3ccccc3)CC5)cn2)CCC1 [AA.2]	< 1

same assay, conditions: fluorescence polarization competition; 20 nM TNFα trimer, 1 nM OregonGreen488 probe; read-out: TNF IC50 (TNFα FP binding assay IC50)

Compound	IC50 [µM]
1-((R)-4-(5-((R)-8-(3-(Hydroxymethyl)phenyl)-7,8-dihydro-6H-pyrrolo[2′,1′:2,3]imidazo[4,5-b]pyridin-2-yl)pyrimidin-2-yl)-2-methylpiperazin-1-yl)ethanone [Example 45]	1 to 10
c1ccc(C2COCc3nc4ccc(-c5cnc(N6CCOCC6)nc5)cc4n32)cc1 (single isomer, unassigned) [Example 21]	< 1
O=C1NCC2CN(c3ncc(-c4ccc5nc6n(c5n4)[C@@H](c4ccccc4)CC6)cn3)CCN12 (single isomer, unassigned) [Example 30]	< 1
O=C1NCC2CN(c3ncc(-c4ccc5nc6n(c5n4)C(c4ccccc4)COC6)cn3)CCN12 (stereo in doubt) [Example 58, (8aS)-7-(5-(9-Phenyl-8,9-dihydro-6H-pyrido[3′,2′:4,5]imidazo[2,1-c][1,4]oxazin-2-yl)pyrimidin-2-yl)hexahydroimidazo[1,5-a]pyrazin-3(2H)-one]	< 1
C[C@]1(c2ccccc2)CCc2nc3ccc(-c4cnc(N5CCC(O)CC5)nc4)nc3n21 [(R)-1-(5-(8-methyl-8-phenyl-7,8-dihydro-6H-pyrrolo[2′,1′:2,3]imidazo[4,5-b]pyridin-2-yl)pyrimidin-2-yl)piperidin-4-ol]	< 1
CC(C)(O)c1ncc(-c2ccc3nc4n(c3n2)[C@@](C)(c2ccccc2)CC4)cn1 [(R)-2-(5-(8-methyl-8-phenyl-7,8-dihydro-6H-pyrrolo[2′,1′:2,3]imidazo[4,5-b]pyridin-2-yl)pyrimidin-2-yl)propan-2-ol]	< 1
C[C@@]1(c2ccccc2)CCc2nc3ccc(-c4cnc(N5CCC(O)CC5)nc4)nc3n21 [(S)-1-(5-(8-methyl-8-phenyl-7,8-dihydro-6H-pyrrolo[2′,1′:2,3]imidazo[4,5-b]pyridin-2-yl)pyrimidin-2-yl)piperidin-4-ol]	10 to 100
CC(C)(O)c1ncc(-c2ccc3nc4n(c3n2)[C@](C)(c2ccccc2)CC4)cn1 [(S)-2-(5-(8-methyl-8-phenyl-7,8-dihydro-6H-pyrrolo[2′,1′:2,3]imidazo[4,5-b]pyridin-2-yl)pyrimidin-2-yl)propan-2-ol]	10 to 100
CNS(=O)(=O)c1ccc(-c2ccc3nc4n(c3c2)C(c2ccccc2)CC4)cc1 (stereo not drawn) [A.1]	< 1
CCS(=O)(=O)c1ccc(-c2ccc3nc4n(c3c2)C(c2ccccc2)CC4)cc1 (stereo not drawn) [A.2]	< 1
O=S(=O)(c1ccc(-c2ccc3nc4n(c3c2)C(c2ccccc2)CC4)cc1)N1CCOCC1 (stereo not drawn) [A.3]	< 1
CS(=O)(=O)NCc1ccc(-c2ccc3nc4n(c3c2)C(c2ccccc2)CC4)cc1 (stereo not drawn) [A.4]	< 1
CS(=O)(=O)c1ccc(-c2ccc3nc4n(c3c2)C(c2ccccc2)CC4)cc1 (stereo not drawn) [A.5]	< 1
NS(=O)(=O)c1ccc(-c2ccc3nc4n(c3c2)C(c2ccccc2)CC4)cc1 (stereo not drawn) [A.6]	< 1
N#CCc1ccc(-c2ccc3nc4n(c3c2)C(c2ccccc2)CC4)cc1 (stereo not drawn) [A.7]	< 1
c1ccc(C2CCc3nc4ccc(-c5cnc(C6CC6)nc5)cc4n32)cc1 (stereo not drawn) [A.8]	< 1
CCS(=O)(=O)c1ccc(-c2ccc3nc4n(c3c2)C(c2ccccc2)CC4)cn1 (stereo not drawn) [A.9]	< 1
CN(C)C(=O)c1ccc(-c2ccc3nc4n(c3c2)C(c2ccccc2)CC4)cc1 (stereo not drawn) [A.10]	< 1
CCN(C)C(=O)c1ccc(-c2ccc3nc4n(c3c2)C(c2ccccc2)CC4)cc1 (stereo not drawn) [A.11]	< 1
CN(C)c1ccc(-c2ccc3nc4n(c3c2)C(c2ccccc2)CC4)cn1 (stereo not drawn) [A.12]	1 to 10
Cc1cc(-c2ccc3nc4n(c3c2)C(c2ccccc2)CC4)ccn1 (stereo not drawn) [A.13]	1 to 10
Cc1ccc(-c2ccc3nc4n(c3c2)C(c2ccccc2)CC4)cn1 (stereo not drawn) [A.14]	1 to 10
CCOc1cncc(-c2ccc3nc4n(c3c2)C(c2ccccc2)CC4)c1 (stereo not drawn) [A.15]	1 to 10
CSc1ccc(-c2ccc3nc4n(c3c2)C(c2ccccc2)CC4)cn1 (stereo not drawn) [A.16]	1 to 10
c1ccc(C2CCc3nc4ccc(-c5ccc(N6CCNCC6)nc5)cc4n32)cc1 (stereo not drawn) [A.17]	1 to 10
N#CCOc1cccc(-c2ccc3nc4n(c3c2)C(c2ccccc2)CC4)c1 (stereo not drawn) [A.18]	1 to 10
O=C(NC1CC1)c1ccc(-c2ccc3nc4n(c3c2)C(c2ccccc2)CC4)cc1 (stereo not drawn) [A.19]	1 to 10
CN1CCN(c2ccc(-c3ccc4nc5n(c4c3)C(c3ccccc3)CC5)cn2)CC1 (stereo not drawn) [A.20]	1 to 10

Compound	IC50 [µM]
c1ccc(C2CCc3nc4ccc(-c5cnn(Cc6cccnc6)c5)cc4n32)cc1 (stereo not drawn) [A.21]	1 to 10
c1ccc(C2CCc3nc4ccc(-c5cccnc5)cc4n32)cc1 (stereo not drawn) [A.22]	1 to 10
Nc1ncc(-c2ccc3nc4n(c3c2)C(c2ccccc2)CC4)cn1 (stereo not drawn) [A.23]	1 to 10
c1ccc(C2CCc3nc4ccc(-c5cncnc5)cc4n32)cc1 (stereo not drawn) [A.24]	1 to 10
Cc1cncc(-c2ccc3nc4n(c3c2)C(c2ccccc2)CC4)c1 (stereo not drawn) [A.25]	1 to 10
O=C(NCC1CCCO1)c1ccc(-c2ccc3nc4n(c3c2)C(c2ccccc2)CC4)cc1 (stereo not drawn) [A.26]	1 to 10
Nc1ccc(-c2ccc3nc4n(c3c2)C(c2ccccc2)CC4)cn1 (stereo not drawn) [A.27]	10 to 100
Cc1c(-c2ccc3nc4n(c3c2)C(c2ccccc2)CC4)cnn1C (stereo not drawn) [A.28]	10 to 100
CN(C)C(=O)c1cccc(-c2ccc3nc4n(c3c2)C(c2ccccc2)CC4)c1 (stereo not drawn) [A.29]	10 to 100
CS(=O)(=O)c1cccc(-c2ccc3nc4n(c3c2)C(c2ccccc2)CC4)c1 (stereo not drawn) [A.30]	10 to 100
CS(=O)(=O)c1cncc(-c2ccc3nc4n(c3c2)C(c2ccccc2)CC4)c1 (stereo not drawn) [A.31]	10 to 100
Cc1ncccc1-c1ccc2nc3n(c2c1)C(c1ccccc1)CC3 (stereo not drawn) [A.32]	10 to 100
CC(C)S(=O)(=O)c1ccc(-c2ccc3nc4n(c3c2)C(c2ccccc2)CC4)cc1 (stereo not drawn) [A.33]	< 1
N#CCOc1ccc(-c2ccc3nc4n(c3c2)C(c2ccccc2)CC4)cc1 (stereo not drawn) [A.34]	1 to 10
CCNC(=O)c1ccc(-c2ccc3nc4n(c3c2)C(c2ccccc2)CC4)cc1 (stereo not drawn) [A.35]	1 to 10
NC(=O)c1ccc(-c2ccc3nc4n(c3c2)C(c2ccccc2)CC4)cc1 (stereo not drawn) [A.36]	1 to 10
c1ccc(C2CCc3nc4ccc(-c5ccc6c(c5)OCO6)cc4n32)cc1 (stereo not drawn) [A.37]	1 to 10
COc1cncc(-c2ccc3nc4n(c3c2)C(c2ccccc2)CC4)c1 (stereo not drawn) [A.38]	1 to 10
COCCNC(=O)c1ccc(-c2ccc3nc4n(c3c2)C(c2ccccc2)CC4)cc1 (stereo not drawn) [A.39]	1 to 10
CNC(=O)c1ccc(-c2ccc3nc4n(c3c2)C(c2ccccc2)CC4)cc1 (stereo not drawn) [A.40]	1 to 10
N#CCc1cccc(-c2ccc3nc4n(c3c2)C(c2ccccc2)CC4)c1 (stereo not drawn) [A.41]	1 to 10
CS(=O)(=O)NCc1cccc(-c2ccc3nc4n(c3c2)C(c2ccccc2)CC4)c1 (stereo not drawn) [A.42]	1 to 10
CNC(=O)c1cccc(-c2ccc3nc4n(c3c2)C(c2ccccc2)CC4)c1 (stereo not drawn) [A.43]	1 to 10
CCN(C)C(=O)c1cccc(-c2ccc3nc4n(c3c2)C(c2ccccc2)CC4)c1 (stereo not drawn) [A.44]	10 to 100
CN(C)CCNC(=O)c1cccc(-c2ccc3nc4n(c3c2)C(c2ccccc2)CC4)c1 (stereo not drawn) [A.45]	10 to 100
Cn1cc(-c2ccc3nc4n(c3c2)C(c2ccccc2)CC4)ccc1=O (stereo not drawn) [A.46]	10 to 100
Cn1ccc(-c2ccc3nc4n(c3c2)C(c2ccccc2)CC4)c1 (stereo not drawn) [A.47]	10 to 100
